Test results from US20090238808A1, “Process for the identification of novel enzyme interacting compounds” (priority 2005, published 2009).

Experiments:
Test in all cases: In-lysate competition binding with kinobeads, Jurkat lysate, iTRAQ MS, relative intensity of identified proteins (Table 22)
Details in all cases: DMSO control = 1.0
[1] = target: T1, proteins captured on kinobeads from Jurkat cell lysate (Homo sapiens, UniProt Q9UHD2)
T1 construct: endogenous in cells; host or cells: Jurkat clone E6-1 lysate
Method: (§1) This example illustrates competition binding in cell lysates (see particularly the third aspect of the invention). A test compound, Bisindolylmaleimide VIII (Bis VIII, a well known kinase inhibitor; Davies et al., 2000. Specificity and mechanism of action of some commonly used protein kinase inhibitors. Biochemical Journal 351 (Pt 1): 95-105) was added to a cell lysate thereby allowing the test compound to bind to the target proteins in the lysate. Then the lysate was contacted with the kinobeads affinity matrix to capture remaining free target proteins. The proteins bound to the kinobeads matrix were then eluted with detergent-containing buffer, separated on a SDS-polyacryamide gel and analyzed by immunodetection (Western blots) or mass spectrometry detection.
(§2) For the quantitative detection of proteins by mass spectrometry proteins were eluted from the affinity matrix and subsequently separated by SDS-Polyacrylamide gel elecrophoresis. Suitable gel areas were cut out and subjected to in-gel proteolytic digestion with trypsin.
(§3) Four tryptic digest samples (corresponding to three different Bis VIII concentrations in the lysate and one DMSO control) were labeled with ITRAQ reagents and the combined samples were analyzed in a single LC-MS/MS mass spectrometry analysis followed by peak quantification in the MS/MS spectrum (Ross et al., 2004. Multiplexed protein quantitation in Saccharomyces cerevisiae using amine-reactive isobaric tagging reagents. Mol. Cell. Proteomics 3(12): 1154-1169). […] Binding curves for individual kinases are shown (FIG. 5). The relative intensity 50 (RI50) values representing the affinity of kinase-compound pairs are similar to IC50 values reported by kinase enzyme assays (Davies et al., 2000. Specificity and mechanism of action of some commonly used protein kinase inhibitors. Biochemical Journal 351 (Pt 1): 95-105).
(§4) Aliqots of Jurkat lysate (10 mg protein) were incubated with different Bis VIII concentrations for one hour at 4° C. (0.025 μM, 0.074 μM, 0.22 μM, 0.67 μM, 2.0 μM and 6.0 μM final concentration of Bis VIII). To this end Bis VIII solutions were prepared in 100% DMSO as solvent that corresponded to 200 fold desired final Bis VIII concentration (Bis VIII from Alexis Biochemicals cat. number ALX 270-056). Five μl of these solutions were added to 1 ml of lysate resulting in the indicated final concentrations. For a control experiment 5 μl of DMSO without Bis VIII were used.
(§5) To each preincubated lysate sample 40 μl of kinobeads (see example 1) were added and incubated for one hour at 4° C. During the incubation the tubes were rotated on an end-over-end shaker (Roto Shake Genie, Scientific Industries Inc.). Beads were collected by centrifugation, transfered to Mobicol-columns (MoBiTech 10055) and washed with 10 ml 1×DP buffer containing 0.4% NP40 detergent, followed by a wash with 5 ml 1×DP buffer with 0.2% NP40. To elute the bound proteins, 100 μl 2×SDS sample buffer was added, the column was heated for 30 minutes at 50° C. and the eluate was transferred to a microfuge tube by centrifugation. Proteins were then separated by SDS-Polyacrylamide electrophoresis (SDS-PAGE). The composition and preparation of buffers is described in example 2.
(§6) The peptide extracts of samples treated with different concentrations of the test compound (0.074 μM, 0.22 μM and 0.67 μM Bis VIII) and the solvent control (0.5% DMSO) were treated with different isomers of the isobaric tagging reagent (iTRAQ Reagents Multiplex Kit, part number 4352135, Applied Biosystems, Foster City, Calif., USA). The iTRAQ reagents are a set of multiplexed, amine-specific, stable isotope reagents that can label all peptides in up to four different biological samples enabling simultaneous identification and quantitation of peptides. The iTRAQ reagents were used according to instructions provided by the manufacturer. […]

[2] = target: T2, proteins captured on kinobeads from Jurkat cell lysate (Homo sapiens, UniProt Q96GD4)
T2 construct: endogenous in cells; host or cells: Jurkat clone E6-1 lysate
T2 sequence (Q96GD4 whole entry): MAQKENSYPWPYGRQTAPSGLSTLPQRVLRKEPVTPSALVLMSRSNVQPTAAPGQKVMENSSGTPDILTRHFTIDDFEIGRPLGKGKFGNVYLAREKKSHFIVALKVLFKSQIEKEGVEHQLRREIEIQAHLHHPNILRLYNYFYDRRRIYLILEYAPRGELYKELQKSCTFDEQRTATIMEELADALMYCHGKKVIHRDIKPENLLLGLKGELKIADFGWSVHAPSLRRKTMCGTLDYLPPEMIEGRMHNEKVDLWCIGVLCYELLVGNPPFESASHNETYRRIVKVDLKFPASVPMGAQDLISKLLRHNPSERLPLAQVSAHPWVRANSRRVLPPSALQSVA
Method: as §1, §2, §3, §4, §5, §6

[3] = target: T3, proteins captured on kinobeads from Jurkat cell lysate (Homo sapiens, UniProt P06241)
T3 construct: endogenous in cells; host or cells: Jurkat clone E6-1 lysate
T3 sequence (P06241 whole entry): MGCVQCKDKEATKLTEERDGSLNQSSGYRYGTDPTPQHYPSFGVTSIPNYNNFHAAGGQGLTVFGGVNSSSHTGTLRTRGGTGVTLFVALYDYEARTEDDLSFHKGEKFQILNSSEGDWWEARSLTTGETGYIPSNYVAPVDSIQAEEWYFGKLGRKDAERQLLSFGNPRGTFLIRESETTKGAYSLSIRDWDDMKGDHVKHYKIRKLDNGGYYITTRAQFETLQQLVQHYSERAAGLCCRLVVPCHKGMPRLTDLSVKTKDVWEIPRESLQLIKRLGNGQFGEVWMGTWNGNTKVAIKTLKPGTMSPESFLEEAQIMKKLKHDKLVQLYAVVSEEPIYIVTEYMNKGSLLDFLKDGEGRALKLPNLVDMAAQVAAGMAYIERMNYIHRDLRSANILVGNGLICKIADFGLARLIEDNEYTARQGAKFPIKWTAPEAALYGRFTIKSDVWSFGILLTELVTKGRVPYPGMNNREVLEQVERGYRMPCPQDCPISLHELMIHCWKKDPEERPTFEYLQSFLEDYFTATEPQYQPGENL
Method: as §1, §2, §3, §4, §5, §6

[4] = target: T4, proteins captured on kinobeads from Jurkat cell lysate (Homo sapiens, UniProt P45983)
T4 construct: endogenous in cells; host or cells: Jurkat clone E6-1 lysate
Method: as §1, §2, §3, §4, §5, §6

[5] = target: T5, proteins captured on kinobeads from Jurkat cell lysate (Homo sapiens, UniProt Q14289)
T5 construct: endogenous in cells; host or cells: Jurkat clone E6-1 lysate
Method: as §1, §2, §3, §4, §5, §6

[6] = target: T6, proteins captured on kinobeads from Jurkat cell lysate (Homo sapiens, UniProt P06239)
T6 construct: endogenous in cells; host or cells: Jurkat clone E6-1 lysate
T6 sequence (P06239 whole entry): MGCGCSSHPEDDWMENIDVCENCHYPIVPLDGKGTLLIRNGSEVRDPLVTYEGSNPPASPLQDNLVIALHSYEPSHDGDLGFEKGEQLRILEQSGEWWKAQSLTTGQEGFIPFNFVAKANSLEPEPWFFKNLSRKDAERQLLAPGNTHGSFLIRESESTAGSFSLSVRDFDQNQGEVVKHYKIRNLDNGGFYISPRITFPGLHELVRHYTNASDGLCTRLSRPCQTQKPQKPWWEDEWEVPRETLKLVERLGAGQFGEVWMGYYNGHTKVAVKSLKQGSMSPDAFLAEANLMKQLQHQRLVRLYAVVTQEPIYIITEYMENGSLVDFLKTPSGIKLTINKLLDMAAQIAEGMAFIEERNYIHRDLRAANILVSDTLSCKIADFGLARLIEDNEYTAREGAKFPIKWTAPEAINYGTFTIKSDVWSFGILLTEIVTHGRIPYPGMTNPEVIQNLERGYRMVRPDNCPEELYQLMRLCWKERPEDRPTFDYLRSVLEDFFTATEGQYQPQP
Method: as §1, §2, §3, §4, §5, §6

[7] = target: T7, proteins captured on kinobeads from Jurkat cell lysate (Homo sapiens, UniProt P41240)
T7 construct: endogenous in cells; host or cells: Jurkat clone E6-1 lysate
Method: as §1, §2, §3, §4, §5, §6

[8] = target: T8, proteins captured on kinobeads from Jurkat cell lysate (Homo sapiens, UniProt Q9Y478)
T8 construct: endogenous in cells; host or cells: Jurkat clone E6-1 lysate
T8 sequence (Q9Y478 whole entry): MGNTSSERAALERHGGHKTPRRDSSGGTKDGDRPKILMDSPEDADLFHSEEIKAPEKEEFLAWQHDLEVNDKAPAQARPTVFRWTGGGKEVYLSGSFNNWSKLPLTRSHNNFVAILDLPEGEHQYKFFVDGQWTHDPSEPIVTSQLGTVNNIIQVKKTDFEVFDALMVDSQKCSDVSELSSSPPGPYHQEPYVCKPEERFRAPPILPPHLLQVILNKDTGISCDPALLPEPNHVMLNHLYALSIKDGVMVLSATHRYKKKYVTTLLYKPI
Method: as §1, §2, §3, §4, §5, §6

[9] = target: T9, proteins captured on kinobeads from Jurkat cell lysate (Homo sapiens, UniProt P50613)
T9 construct: endogenous in cells; host or cells: Jurkat clone E6-1 lysate
T9 sequence (P50613 whole entry): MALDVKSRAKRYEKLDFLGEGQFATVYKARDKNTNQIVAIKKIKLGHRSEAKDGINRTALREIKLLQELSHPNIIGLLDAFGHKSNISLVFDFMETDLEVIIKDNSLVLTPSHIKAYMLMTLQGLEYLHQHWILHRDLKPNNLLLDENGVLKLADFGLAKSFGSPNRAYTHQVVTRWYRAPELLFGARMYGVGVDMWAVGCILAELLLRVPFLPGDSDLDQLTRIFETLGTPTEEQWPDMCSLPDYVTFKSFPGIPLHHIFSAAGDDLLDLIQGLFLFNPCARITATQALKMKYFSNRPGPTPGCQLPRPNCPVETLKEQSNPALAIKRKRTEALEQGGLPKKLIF
Method: as §1, §2, §3, §4, §5, §6

[10] = target: T10, proteins captured on kinobeads from Jurkat cell lysate (Homo sapiens, UniProt Q08881)
T10 construct: endogenous in cells; host or cells: Jurkat clone E6-1 lysate
T10 sequence (Q08881 whole entry): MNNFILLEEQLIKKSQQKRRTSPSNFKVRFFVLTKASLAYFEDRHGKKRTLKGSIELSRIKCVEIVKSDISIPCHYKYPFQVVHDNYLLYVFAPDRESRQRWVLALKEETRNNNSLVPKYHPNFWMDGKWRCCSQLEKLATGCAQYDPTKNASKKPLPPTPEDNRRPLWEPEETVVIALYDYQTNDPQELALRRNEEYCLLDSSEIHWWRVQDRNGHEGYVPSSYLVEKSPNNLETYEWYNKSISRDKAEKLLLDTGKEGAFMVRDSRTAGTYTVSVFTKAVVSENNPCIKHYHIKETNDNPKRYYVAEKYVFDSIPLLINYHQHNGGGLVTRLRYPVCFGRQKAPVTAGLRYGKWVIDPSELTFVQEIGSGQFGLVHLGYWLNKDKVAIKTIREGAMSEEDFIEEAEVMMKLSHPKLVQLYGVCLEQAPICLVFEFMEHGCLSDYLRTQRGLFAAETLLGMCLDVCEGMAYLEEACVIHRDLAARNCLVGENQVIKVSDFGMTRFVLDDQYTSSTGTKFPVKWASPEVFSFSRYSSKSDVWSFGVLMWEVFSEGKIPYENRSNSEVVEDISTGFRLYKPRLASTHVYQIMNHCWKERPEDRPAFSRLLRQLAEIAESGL
Method: as §1, §2, §3, §4, §5, §6

[11] = target: T11, proteins captured on kinobeads from Jurkat cell lysate (Homo sapiens, UniProt Q13557)
T11 construct: endogenous in cells; host or cells: Jurkat clone E6-1 lysate
T11 sequence (Q13557 whole entry): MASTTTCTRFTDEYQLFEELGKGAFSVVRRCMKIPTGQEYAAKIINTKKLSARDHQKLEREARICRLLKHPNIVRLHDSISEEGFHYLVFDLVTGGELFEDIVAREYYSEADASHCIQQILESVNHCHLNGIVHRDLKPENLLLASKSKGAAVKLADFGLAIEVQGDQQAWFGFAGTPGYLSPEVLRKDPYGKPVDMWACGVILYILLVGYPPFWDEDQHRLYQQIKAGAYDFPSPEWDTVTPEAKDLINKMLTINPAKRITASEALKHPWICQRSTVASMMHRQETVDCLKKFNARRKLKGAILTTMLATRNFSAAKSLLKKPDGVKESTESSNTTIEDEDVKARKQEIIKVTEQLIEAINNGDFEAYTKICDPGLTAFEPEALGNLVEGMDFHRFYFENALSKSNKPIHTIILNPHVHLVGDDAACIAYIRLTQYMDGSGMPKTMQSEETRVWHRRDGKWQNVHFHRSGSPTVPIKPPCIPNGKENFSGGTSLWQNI
Method: as §1, §2, §3, §4, §5, §6

[12] = target: T12, proteins captured on kinobeads from Jurkat cell lysate (Homo sapiens, UniProt P48729)
T12 construct: endogenous in cells; host or cells: Jurkat clone E6-1 lysate
T12 sequence (P48729 whole entry): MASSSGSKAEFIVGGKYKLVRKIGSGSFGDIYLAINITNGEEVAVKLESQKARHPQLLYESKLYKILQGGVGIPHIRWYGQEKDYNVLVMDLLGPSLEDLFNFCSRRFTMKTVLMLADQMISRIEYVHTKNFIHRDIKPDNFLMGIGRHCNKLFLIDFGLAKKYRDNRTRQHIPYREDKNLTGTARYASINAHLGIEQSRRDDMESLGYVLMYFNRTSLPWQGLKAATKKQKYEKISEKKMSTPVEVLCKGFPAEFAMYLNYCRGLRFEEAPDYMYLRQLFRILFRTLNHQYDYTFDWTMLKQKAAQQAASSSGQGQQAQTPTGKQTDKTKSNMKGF
Method: as §1, §2, §3, §4, §5, §6

[13] = target: T13, proteins captured on kinobeads from Jurkat cell lysate (Homo sapiens, UniProt P30291)
T13 construct: endogenous in cells; host or cells: Jurkat clone E6-1 lysate
T13 sequence (P30291 whole entry): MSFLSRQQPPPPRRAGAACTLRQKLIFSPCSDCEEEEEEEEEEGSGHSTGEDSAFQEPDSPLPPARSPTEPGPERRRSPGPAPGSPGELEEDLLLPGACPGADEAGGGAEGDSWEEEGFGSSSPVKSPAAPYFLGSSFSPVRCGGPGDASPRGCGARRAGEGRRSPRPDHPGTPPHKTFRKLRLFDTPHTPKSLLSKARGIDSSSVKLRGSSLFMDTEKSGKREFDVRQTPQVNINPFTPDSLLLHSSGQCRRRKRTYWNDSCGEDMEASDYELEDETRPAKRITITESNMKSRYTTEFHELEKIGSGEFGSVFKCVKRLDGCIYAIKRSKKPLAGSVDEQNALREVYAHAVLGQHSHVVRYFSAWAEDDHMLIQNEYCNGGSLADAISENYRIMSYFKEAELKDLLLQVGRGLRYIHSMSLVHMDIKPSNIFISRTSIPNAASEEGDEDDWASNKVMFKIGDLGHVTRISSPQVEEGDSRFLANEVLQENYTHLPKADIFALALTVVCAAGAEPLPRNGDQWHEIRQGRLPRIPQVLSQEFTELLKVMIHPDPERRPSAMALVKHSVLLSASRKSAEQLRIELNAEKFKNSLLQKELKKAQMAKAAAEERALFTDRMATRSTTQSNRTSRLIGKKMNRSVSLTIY
Method: as §1, §2, §3, §4, §5, §6

[14] = target: T14, proteins captured on kinobeads from Jurkat cell lysate (Homo sapiens, UniProt Q16539)
T14 construct: endogenous in cells; host or cells: Jurkat clone E6-1 lysate
T14 sequence (Q16539 whole entry): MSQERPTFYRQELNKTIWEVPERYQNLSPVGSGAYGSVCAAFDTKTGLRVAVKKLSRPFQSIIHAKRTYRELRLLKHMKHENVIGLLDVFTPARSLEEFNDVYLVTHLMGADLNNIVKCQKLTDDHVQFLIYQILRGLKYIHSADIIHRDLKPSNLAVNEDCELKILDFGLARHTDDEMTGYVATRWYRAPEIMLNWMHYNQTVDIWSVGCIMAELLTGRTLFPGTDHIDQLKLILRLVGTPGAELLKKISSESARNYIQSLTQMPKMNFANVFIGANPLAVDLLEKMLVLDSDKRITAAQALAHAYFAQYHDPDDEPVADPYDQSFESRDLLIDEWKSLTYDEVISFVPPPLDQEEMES
Method: as §1, §2, §3, §4, §5, §6

[15] = target: T15, proteins captured on kinobeads from Jurkat cell lysate (Homo sapiens, UniProt Q6PHR2)
T15 construct: endogenous in cells; host or cells: Jurkat clone E6-1 lysate
T15 sequence (Q6PHR2 whole entry): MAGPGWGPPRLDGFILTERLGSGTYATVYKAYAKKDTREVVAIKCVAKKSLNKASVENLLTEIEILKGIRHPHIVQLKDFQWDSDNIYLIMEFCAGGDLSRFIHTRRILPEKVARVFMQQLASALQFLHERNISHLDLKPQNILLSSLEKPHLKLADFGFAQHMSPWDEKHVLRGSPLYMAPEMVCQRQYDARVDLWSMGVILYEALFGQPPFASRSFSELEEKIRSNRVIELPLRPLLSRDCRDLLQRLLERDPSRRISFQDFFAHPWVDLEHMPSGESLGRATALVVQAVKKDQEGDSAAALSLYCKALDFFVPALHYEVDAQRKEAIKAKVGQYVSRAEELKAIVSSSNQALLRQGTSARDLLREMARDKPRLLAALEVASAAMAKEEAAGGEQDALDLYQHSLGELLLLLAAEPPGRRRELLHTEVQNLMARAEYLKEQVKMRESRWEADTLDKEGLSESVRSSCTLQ
Method: as §1, §2, §3, §4, §5, §6

Relative Intensity, TBK1 ([1]; 0.074 uM in lysate): 1.05
Relative Intensity, TBK1 ([1]; 0.67 uM in lysate): 1.14
Relative Intensity, AurB (AURKB) ([2]; 0.074 uM in lysate): 0.95
Relative Intensity, AurB (AURKB) ([2]; 0.67 uM in lysate): 0.97
Relative Intensity, FYN ([3]; 0.074 uM in lysate): 0.91
Relative Intensity, FYN ([3]; 0.67 uM in lysate): 0.93
Relative Intensity, JNK1 (MAPK8) ([4]; 0.074 uM in lysate): 0.91
Relative Intensity, JNK1 (MAPK8) ([4]; 0.67 uM in lysate): 0.83
Relative Intensity, PYK2 (PTK2B) ([5]; 0.074 uM in lysate): 0.82
Relative Intensity, PYK2 (PTK2B) ([5]; 0.67 uM in lysate): 0.74
Relative Intensity, LCK ([6]; 0.074 uM in lysate): 0.87
Relative Intensity, LCK ([6]; 0.67 uM in lysate): 0.94
Relative Intensity, CSK ([7]; 0.074 uM in lysate): 0.84
Relative Intensity, CSK ([7]; 0.67 uM in lysate): 0.89
Relative Intensity, PRKAB1 ([8]; 0.074 uM in lysate): 0.91
Relative Intensity, PRKAB1 ([8]; 0.67 uM in lysate): 0.79
Relative Intensity, CDK7 ([9]; 0.074 uM in lysate): 1.03
Relative Intensity, CDK7 ([9]; 0.67 uM in lysate): 0.89
Relative Intensity, ITK ([10]; 0.074 uM in lysate): 0.80
Relative Intensity, ITK ([10]; 0.67 uM in lysate): 0.91
Relative Intensity, CaMK2d ([11]; 0.074 uM in lysate): 0.91
Relative Intensity, CaMK2d ([11]; 0.67 uM in lysate): 0.88
Relative Intensity, CK1a (CSNK1A1) ([12]; 0.074 uM in lysate): 0.97
Relative Intensity, CK1a (CSNK1A1) ([12]; 0.67 uM in lysate): 1.02
Relative Intensity, Wee1 ([13]; 0.074 uM in lysate): 1.21
Relative Intensity, Wee1 ([13]; 0.67 uM in lysate): 1.14
Relative Intensity, p38a (MAPK14) ([14]; 0.074 uM in lysate): 0.82
Relative Intensity, p38a (MAPK14) ([14]; 0.67 uM in lysate): 0.93
Relative Intensity, ULK3 ([15]; 0.074 uM in lysate): 0.95
Relative Intensity, ULK3 ([15]; 0.67 uM in lysate): 1.15
Structure (SMILES): Cn1cc(C2=C(c3cn(CCCN)c4ccccc34)C(=O)NC2=O)c2ccccc21 [Bis VIII, Bisindolylmaleimide VIII]
